From EPA's ToxRefDB 2 come the findings set out here.

Series [1] has as its system rat. The note with it: Combined chronic toxicity/carcinogenicity; other; Oral; Feed; dose end: 2 year; group: systemic; systemic / clinical chemistry / peroxisomal beta-oxidation analysis / peroxisomal beta-oxidation analysis + systemic / organ weight / liver….
The test system of series [2] is rat. The note with it: Subchronic oral toxicity in rodents, Charles River CD, Feed, dose end: 90 day, group: systemic.
For series [3], the system named is rat. As to conditions: Combined chronic toxicity/carcinogenicity; sprague dawley; Oral; Feed; dose end: 104 week; group: systemic; systemic / clinical chemistry / alkaline phosphatase (alp/alk) / alkaline phosphatase (alp/alk) + systemic / clinical chemistry / aspartate ….
Series [4] deals with rabbit. The note with it: Prenatal developmental toxicity study, new zealand white, Oral, Gavage/Intubation, dose end: 18 GD.
In series [5] the test system is rat. The note with it: Multigenerational reproductive toxicity study, sprague dawley, Oral, Gavage/Intubation, dose end: 2 generation.
The subject of series [6] is mouse. The note with it: Carcinogenicity, cd1, Oral, Feed, dose end: 22 month, group: systemic.
The test system of series [7] is mouse. The note with it: Carcinogenicity; cd1; Oral; Feed; dose end: 113 week; group: systemic; systemic / pathology microscopic / intestine small / adenocarcinoma + systemic / pathology microscopic / intestine small / adenoma + ….
For series [8], the system named is rabbit. As to conditions: Prenatal developmental toxicity study, new zealand white, Oral, Gavage/Intubation, dose end: 19 GD.
Series [9] deals with dog. The note with it: Chronic toxicity; beagle; Oral; Capsule; dose end: 12 month; group: systemic; systemic / in life observation / clinical signs / emesis + systemic / in life observation / clinical signs / mucoid stools + systemic / in ….
Series [10] has as its system rat. As to conditions: Acute oral toxicity, wistar, [Not Specified], dose end: 7 day, group: systemic, systemic / clinical chemistry / calcium / calcium + systemic / urinalysis / calcium / calcium.
Series [11] deals with rat. The note with it: Chronic toxicity, sprague dawley, Oral, Feed, dose end: 98 week, group: cholinesterase.
The subject of series [12] is rat. The note with it: Prenatal developmental toxicity study, sprague dawley, Oral, Gavage/Intubation, dose end: 15 GD.
In series [13] the test system is rat. As to conditions: Subchronic oral toxicity in rodents, sprague dawley, Feed, dose end: 90 day.
For series [14], the system named is rat. As to conditions: Developmental neurotoxicity range-finding study, sprague dawley, Oral, Feed, dose end: 21 PND, group: cannot be grouped.
Series [15] deals with dog. The note with it: Chronic toxicity, beagle, Oral, Feed, dose end: 52 week.
In series [16] the test system is rat. The note with it: Prenatal developmental toxicity study, sprague dawley, Oral, Gavage/Intubation, dose end: 15 GD, group: maternal.
Series [17] has as its system rat. The note with it: Subchronic oral toxicity in rodents, sprague dawley, Gavage/Intubation, dose end: 13 week, group: systemic.
Setting [18] is: systemic / organ weight / liver / absolute + systemic / organ weight / liver / relative to body weight + systemic / pathology microscopic / ….
Setting [19] is: group: developmental, developmental / developmental malformation / bone / full supernumerary.
Setting [20] is: group: maternal, systemic / in life observation / body weight / body weight gain.
Where [21] appears, read: group: offspring, developmental / offspring survival late / lactation index / lactation index + developmental / offspring survival late / [other] / [other] + ….
The mark [22] stands for this setting: group: parental, systemic / in life observation / body weight / body weight + systemic / in life observation / body weight / body weight gain + systemic / in….
Setting [23] is: group: parental, systemic / organ weight / kidney / relative to body weight + systemic / organ weight / liver / absolute + systemic / organ weight / liver / ….
[24] abbreviates: systemic / in life observation / body weight / body weight + systemic / in life observation / food consumption / food consumption.
Setting [25] is: systemic / pathology microscopic / intestine small / neoplasm nos + systemic / pathology microscopic / stomach / neoplasm nos + systemic / ….
[26] abbreviates: group: developmental, developmental / developmental malformation / bone / delayed ossification + developmental / developmental malformation / bone / full ….
The mark [27] stands for this setting: group: maternal, systemic / in life observation / body weight / body weight gain + systemic / in life observation / clinical signs / anorexia + systemic / in….
Setting [28] is: cholinesterase / cholinesterase / cholinesterase / plasma cholinesterase (che).
Setting [29] is: cholinesterase / cholinesterase / cholinesterase / plasma cholinesterase (che) + cholinesterase / cholinesterase / cholinesterase / brain ….
The mark [30] stands for this setting: group: developmental, developmental / developmental malformation / bone / short + systemic / in life observation / body weight / fetal weight.
The mark [31] stands for this setting: group: maternal, systemic / in life observation / body weight / body weight gain + reproductive / reproductive performance / postimplantation loss / ….
Setting [32] is: group: cholinesterase, cholinesterase / cholinesterase / cholinesterase / plasma cholinesterase (che).
Where [33] appears, read: group: cholinesterase, cholinesterase / cholinesterase / cholinesterase / plasma cholinesterase (che) + cholinesterase / cholinesterase / cholinesterase / brain ….
Setting [34] is: group: systemic, systemic / in life observation / body weight / body weight gain + systemic / in life observation / clinical signs / aggressive behavior + ….
The mark [35] stands for this setting: group: cholinesterase, cholinesterase / cholinesterase / cholinesterase / cholinesterase (che) + cholinesterase / cholinesterase / cholinesterase / plasma ….
[36] abbreviates: group: systemic, systemic / organ weight / lung / relative to brain weight.
The mark [37] stands for this setting: systemic / in life observation / body weight / body weight + systemic / in life observation / clinical signs / alopecia + systemic / in life….
Setting [38] is: systemic / organ weight / liver / absolute + systemic / organ weight / liver / relative to body weight + systemic / in life observation / ….

As for `O=C([O-])C(F)(F)C(F)(F)C(F)(F)C(F)(F)C(F)(F)C(F)(F)C(F)(F)F.[NH4+]` [PFOA, ammonium salt], the LEL in series [1] is 15 mg/kg/day; in series [2] (systemic / organ weight / kidney / absolute), 1.5 mg/kg/day; in series [3] it was 1.3 mg/kg/day; in [4] (setting [19]), 50 mg/kg/day; in series [4] (setting [20]), 50 mg/kg/day; in series [5] (setting [21]), 30 mg/kg/day. Moreover, the LEL in series [5] (setting [23]) was 1 mg/kg/day. Besides, the lowest observed adverse effect level (LOAEL) in [1] is above 15 mg/kg/day; in series [2] (setting [18]) it was above 50 mg/kg/day; in series [3] it was above 14.2 mg/kg/day; in series [4] (setting [19]), above 50 mg/kg/day; in series [4] (setting [20]) it was 50 mg/kg/day; in [5] (setting [21]), above 30 mg/kg/day. Also, the LOAEL in [5] (setting [22]) was above 30 mg/kg/day. Further, the NEL in [1] was below 15 mg/kg/day; in series [2] (systemic / clinical chemistry / alkaline phosphatase (alp/alk) / alkaline phosphatase (alp/alk) + systemic / clinical chemistry / urea …), 0.5 mg/kg/day; in series [3] it was below 1.3 mg/kg/day; in series [4] (setting [19]), 5 mg/kg/day; in series [4] (setting [20]) it was 5 mg/kg/day; in [5] (setting [21]), 10 mg/kg/day. Further, the NEL in [5] (setting [23]) is below 1 mg/kg/day. Besides, the no observed adverse effect level (NOAEL) in [1] is at least 15 mg/kg/day; in series [2] (setting [18]), at least 50 mg/kg/day; in [3], at least 14.2 mg/kg/day; in series [4] (setting [19]), at least 50 mg/kg/day; in [4] (setting [20]), 5 mg/kg/day; in [5] (setting [21]) it was at least 30 mg/kg/day. In addition, the NOAEL in [5] (setting [22]) was at least 30 mg/kg/day.
In the case of `O=C1C2CC=CCC2C(=O)N1SC(Cl)(Cl)Cl` (configuration not stated) [Captan], the LOAEL was 925 mg/kg/day in [6] (setting [24]); above 1880 mg/kg/day in [7]; 30 mg/kg/day in [8] (setting [26]); 30 mg/kg/day in series [8] (setting [27]); 300 mg/kg/day in series [9]. In addition, the LEL in series [6] (systemic / pathology microscopic / intestine small / neoplasm nos + systemic / pathology microscopic / stomach / neoplasm nos) came to 60.9 mg/kg/day; in series [7] it was 599 mg/kg/day; in [8] (setting [26]), 30 mg/kg/day; in [8] (setting [27]), 30 mg/kg/day; in series [9] it was 300 mg/kg/day. The NEL in series [6] (setting [25]) is 15.1 mg/kg/day; in series [7] it was below 599 mg/kg/day; in [8] (setting [26]), 10 mg/kg/day; in [8] (setting [27]), 10 mg/kg/day; in [9], 60 mg/kg/day. Besides, the no observed adverse effect level (NOAEL) in [6] (setting [25]) is 123 mg/kg/day; in [7], at least 1880 mg/kg/day; in [8] (setting [26]), 10 mg/kg/day; in series [8] (setting [27]) it was 10 mg/kg/day; in series [9], 60 mg/kg/day.
Take `COc1ccc2c(c1)c(CC(=O)O)c(C)n2C(=O)c1ccc(Cl)cc1` [Indomethacin]: in [10], the LEL came to 20 mg/kg/day, the lowest observed adverse effect level (LOAEL) was above 20 mg/kg/day, the NEL was below 20 mg/kg/day and the NOAEL was at least 20 mg/kg/day.
On to `CCOP(=S)(OCC)Oc1cc(C)nc(C(C)C)n1` [Diazinon], for which the LEL in series [11] (setting [28]) was found to be 0.06 mg/kg/day; in series [12] (setting [30]), 100 mg/kg/day; in series [12] (setting [31]), 100 mg/kg/day; in [13] (setting [32]), 0.3 mg/kg/day; in series [13] (setting [34]), 168 mg/kg/day; in series [14] (setting [29]) it was 0.063 mg/kg/day. The LEL in series [15] (group: cholinesterase, cholinesterase / cholinesterase / cholinesterase / cholinesterase (che)) came to 0.015 mg/kg/day; in series [15] (setting [36]) it was 0.0037 mg/kg/day. Besides, the LOAEL in series [11] (setting [28]) is 0.06 mg/kg/day; in series [12] (group: developmental, developmental / developmental malformation / bone / short), 100 mg/kg/day; in [12] (setting [20]) it was 100 mg/kg/day; in series [13] (setting [32]) it was 0.3 mg/kg/day; in series [13] (setting [34]) it was above 168 mg/kg/day; in [14] (setting [28]) it was 0.063 mg/kg/day. Besides, the LOAEL was determined as 0.02 mg/kg/day in series [15] (setting [35]) and 4.5 mg/kg/day in [15] (group: systemic, systemic / clinical chemistry / [other] / [other] + systemic / in life observation / food consumption / food consumption). Besides, the NEL in [11] (setting [29]) is 0.004 mg/kg/day; in [12] (setting [30]), 20 mg/kg/day; in series [12] (setting [31]) it was 20 mg/kg/day; in series [13] (setting [33]), 0.03 mg/kg/day; in series [13] (setting [34]), 15 mg/kg/day; in series [14] (setting [29]), 0.0125 mg/kg/day. The NEL in series [15] (group: cholinesterase, cholinesterase / cholinesterase / cholinesterase / cholinesterase (che) + cholinesterase / cholinesterase / cholinesterase / brain …) was 0.0032 mg/kg/day; in series [15] (setting [36]), below 0.0037 mg/kg/day. For the same molecule, the NOAEL was 0.004 mg/kg/day in series [11] (setting [29]); 20 mg/kg/day in series [12] (setting [30]); 20 mg/kg/day in [12] (setting [31]); 0.03 mg/kg/day in [13] (setting [33]); at least 168 mg/kg/day in series [13] (setting [34]); 0.0125 mg/kg/day in series [14] (setting [29]). Further, the NOAEL in series [15] (setting [35]) came to 0.0037 mg/kg/day; in [15] (group: systemic, systemic / clinical chemistry / [other] / [other] + systemic / in life observation / food consumption / food consumption + systemic / in …), 0.02 mg/kg/day.
In the case of `CCCCCCCCOC(C)=O` [Octyl acetate], the LOAEL in [16] (setting [37]) and in series [17] (setting [38]) was above 1000 mg/kg/day throughout. Further, the NEL in [16] (setting [37]) and in series [17] (systemic / in life observation / body weight / body weight + systemic / in life observation / food consumption / food consumption + systemic…) was 100 mg/kg/day each time. Also, the no-observed-adverse-effect level (NOAEL) in series [16] (setting [37]) and in [17] (setting [38]) was at least 1000 mg/kg/day in each case. The LEL in series [16] (setting [24]) and in series [17] (systemic / organ weight / liver / relative to body weight) was 500 mg/kg/day throughout.
